Legend:
[1] = biological target: T1, NE1028 (Nitrosomonas europaea, UniProt Q82VN8); experiment: X-ray crystal structure of the complex ([…] Å); conditions: cocrystallised with 10 mM AMP, pH 7.0, then soaked with 10 mM AMP for 24 h; ATP-binding site
T1 construct: full-length, N-terminal His6-TEV tag cleaved; wild type (not SeMet) in the AMP complex; homodimer

[2] = biological target: T2, AF0826 (Archaeoglobus fulgidus, UniProt O29432); experiment: X-ray crystal structure of the complex ([…] Å); conditions: SeMet crystals (pH 5.5) soaked with a cocktail of adenine, adenosine, AMP, ADP, ATP, dAMP, cAMP, ADP-ribose; ligand identified from structure; ATP-binding site
T2 construct: gene AF_0826; N-terminal His6-TEV tag kept; selenomethionine-substituted; homodimer; strain printed only for AF1760 of the same species
T2 sequence (O29432 entry or part of it): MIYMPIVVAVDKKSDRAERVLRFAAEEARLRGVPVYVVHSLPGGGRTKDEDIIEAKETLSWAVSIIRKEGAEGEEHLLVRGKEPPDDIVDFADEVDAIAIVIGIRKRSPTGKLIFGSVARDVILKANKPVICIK

T1 sequence (Q82VN8 entry or part of it): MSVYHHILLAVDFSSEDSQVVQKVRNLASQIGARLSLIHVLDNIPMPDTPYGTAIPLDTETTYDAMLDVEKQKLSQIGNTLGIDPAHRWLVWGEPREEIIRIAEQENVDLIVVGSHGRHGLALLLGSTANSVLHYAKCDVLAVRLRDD

Compound	X-ray crystal structure of the complex (2.00 Å) [1]	X-ray crystal structure of the complex (2.10 Å) [2]
Nc1ncnc2c1ncn2[C@@H]1O[C@H](COP(=O)(O)O)[C@@H](O)[C@H]1O [AMP]	Our structure of NE1028–AMP confirms that the protein can bind at least one molecule	–
Nc1ncnc2c1ncn2[C@H]1C[C@H](O)[C@@H](COP(=O)(O)O)O1 [dAMP]	–	we obtained the structure of AF0826 with dAMP bound in the vicinity

From publication PMC3673472, “Structural and functional insight into the universal stress protein family” (Evolutionary Applications, 2013)
